In US11168086B2, “Methods of synthesizing pyrazine compounds” (Hoffmann-La Roche Inc., priority 2015, dated 2021):

What follows are compounds tested on HBV (assay: HBV inhibition assay: anti-HBV activity in vitro in HepG2.2.15 cells (extracellular HBV DNA by qPCR)). Conditions: Hepatitis B virus, 120 h, five days after compound treatment, extracellular HBV DNA in culture supernatant by qPCR, concentration at which HBV replication is inhibited by 50%.
Type: cell-based
Summary of the method: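 HepG2.2.15 cells (stably carrying HBV genome) treated with half-log serially diluted compounds at 0.5% DMSO final for five days. Extracellular HBV DNA in supernatant quantified by qPCR after Proteinase K digestion; EC50 is concentration giving 50% inhibition of replication.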
For `C[C@H]1Cn2ncc(N3CC4(CC4)OC3=O)c2CN1C(=O)Nc1cc(F)c(F)c(F)c1` [Example 331, (6S)-6-methyl-3-(5-oxo-4-oxa-6-azaspiro[2.4]heptan-6-yl)-N-(3,4,5-trifluorophenyl)-6,7-dihydro-4H-pyrazolo[1,5-a]pyrazine-5-carboxamide], the EC50 was 12 nM.
`Cc1cc(NC(=O)N2CCn3cnc(-c4ccc(F)cc4F)c3C2)cc(F)c1F` [Example 167, N-(3,4-difluoro-5-methyl-phenyl)-1-(2,4-difluorophenyl)-6,8-dihydro-5H-imidazo[1,5-a]pyrazine-7-carboxamide] showed an EC50 of 15 nM.
`O=C(Nc1ccc(F)c(Cl)c1)N1CCn2ncc(-c3ccccc3F)c2C1` [Example 24, N-(3-chloro-4-fluoro-phenyl)-3-(2-fluorophenyl)-6,7-dihydro-4H-pyrazolo[1,5-a]pyrazine-5-carboxamide] gave an EC50 of 33 nM.
In the case of `C[C@H]1Cn2ncc(N3CC(c4cccc(F)n4)OC3=O)c2CN1C(=O)Nc1cc(F)c(F)c(F)c1` (stereo partly drawn) [Example 411, (6S)-3-[5-(6-fluoro-2-pyridyl)-2-oxo-oxazolidin-3-yl]-6-methyl-N-(3,4,5-trifluorophenyl)-6,7-dihydro-4H-pyrazolo[1,5-a]pyrazine-5-carboxamide], the EC50 is reported as 18 nM.
Work on `CC1Cn2ncc(-c3ccc(F)cn3)c2CN1C(=O)Nc1cc(F)c(F)c(Cl)c1` (centres unmarked) [Example 158, N-(3-chloro-4,5-difluoro-phenyl)-3-(5-fluoro-2-pyridyl)-6-methyl-6,7-dihydro-4H-pyrazolo[1,5-a]pyrazine-5-carboxamide] yielded an EC50 of 44 nM.
`O=C(Nc1ccc(F)c(Cl)c1)N1CCn2ncc(-c3cc(C(F)(F)F)ccn3)c2C1` [Example 67, N-(3-chloro-4-fluoro-phenyl)-3-[4-(trifluoromethyl)-2-pyridyl]-6,7-dihydro-4H-pyrazolo[1,5-a]pyrazine-5-carboxamide] gave an EC50 of 29 nM.
Work on `C[C@H]1Cn2ncc(N3CC(C)(C)COC3=O)c2CN1C(=O)Nc1cc(F)c(F)c(F)c1` [Example 294, (6S)-3-(5,5-dimethyl-2-oxo-1,3-oxazinan-3-yl)-6-methyl-N-(3,4,5-trifluorophenyl)-6,7-dihydro-4H-pyrazolo[1,5-a]pyrazine-5-carboxamide] yielded an EC50 of 13 nM.
Compound `COC(=O)N1CC2(CC(=O)N(c3cnn4c3CN(C(=O)Nc3cc(F)c(F)c(F)c3)[C@@H](C)C4)C2)C1` [Example 333, methyl 6-[(6S)-6-methyl-5-[(3,4,5-trifluorophenyl)carbamoyl]-6,7-dihydro-4H-pyrazolo[1,5-a]pyrazin-3-yl]-7-oxo-2,6-diazaspiro[3.4]octane-2-carboxylate] has an EC50 of 46 nM.
Work on `C[C@H]1Cn2ncc(N3CC(Nc4ncccn4)CC3=O)c2CN1C(=O)Nc1cc(F)c(F)c(F)c1` (stereo partly drawn) [Example 269, (6S)-6-methyl-3-[2-oxo-4-(pyrimidin-2-ylamino)pyrrolidin-1-yl]-N-(3,4,5-trifluorophenyl)-6,7-dihydro-4H-pyrazolo[1,5-a]pyrazine-5-carboxamide] yielded an EC50 of 12 nM.
In the case of `CC1CCC(=O)N(c2cnn3c2CN(C(=O)Nc2cc(F)c(F)c(F)c2)[C@@H](C)C3)C1` (stereo partly drawn) [Example 358, (6S)-6-methyl-3-(5-methyl-2-oxo-1-piperidyl)-N-(3,4,5-trifluorophenyl)-6,7-dihydro-4H-pyrazolo[1,5-a]pyrazine-5-carboxamide], the EC50 is reported as 43 nM.
Work on `C[C@H]1Cn2ncc(N3CC(c4ccncc4)OC3=O)c2CN1C(=O)Nc1cc(F)c(F)c(F)c1` (stereo partly drawn) [Example 346, (6S)-6-methyl-3-[2-oxo-5-(4-pyridyl)oxazolidin-3-yl]-N-(3,4,5-trifluorophenyl)-6,7-dihydro-4H-pyrazolo[1,5-a]pyrazine-5-carboxamide] yielded an EC50 of 12 nM.
With `C[C@H]1Cn2ncc(N3C[C@@H](C#N)CC3=O)c2CN1C(=O)Nc1cc(F)c(F)c(F)c1` [Example 240-2, (6S)-3-[(4S)-4-cyano-2-oxo-pyrrolidin-1-yl]-6-methyl-N-(3,4,5-trifluorophenyl)-6,7-dihydro-4H-pyrazolo[1,5-a]pyrazine-5-carboxamide] the EC50 was 9 nM.
`CC1Cn2ncc(-n3cc(C#N)cn3)c2CN1C(=O)Nc1ccc(F)c(Cl)c1` (centres unmarked) [Example 200, N-(3-chloro-4-fluoro-phenyl)-3-(4-cyanopyrazol-1-yl)-6-methyl-6,7-dihydro-4H-pyrazolo[1,5-a]pyrazine-5-carboxamide] showed an EC50 of 38 nM.
In the case of `C[C@H]1Cn2ncc(N3CC4(CCC4)CC3=O)c2CN1C(=O)Nc1cc(F)c(F)c(F)c1` [Example 421, (6S)-6-methyl-3-(7-oxo-6-azaspiro[3.4]octan-6-yl)-N-(3,4,5-trifluorophenyl)-6,7-dihydro-4H-pyrazolo[1,5-a]pyrazine-5-carboxamide], the EC50 is reported as 14 nM.
`N#Cc1cc(NC(=O)N2CCn3ncc(-c4ccc(F)cc4F)c3C2)ccc1F` [Example 142, N-(3-cyano-4-fluoro-phenyl)-3-(2,4-difluorophenyl)-6,7-dihydro-4H-pyrazolo[1,5-a]pyrazine-5-carboxamide] was tested, and the EC50 was 56 nM.
Compound `C[C@H]1[C@H](C)n2ncc(N3CCCC3=O)c2CN1C(=O)Nc1cc(F)c(F)c(F)c1` [Example 251, (6S,7S)-6,7-dimethyl-3-(2-oxopyrrolidin-1-yl)-N-(3,4,5-trifluorophenyl)-6,7-dihydro-4H-pyrazolo[1,5-a]pyrazine-5-carboxamide] has an EC50 of 45 nM.
For `C[C@H]1Cn2ncc(N3CC(c4cncnc4)CC3=O)c2CN1C(=O)Nc1cc(F)c(F)c(F)c1` (stereo partly drawn) [Example 413, (6S)-6-methyl-3-(2-oxo-4-pyrimidin-5-yl-pyrrolidin-1-yl)-N-(3,4,5-trifluorophenyl)-6,7-dihydro-4H-pyrazolo[1,5-a]pyrazine-5-carboxamide], the EC50 was 76 nM.
For `CC1Cn2ncc(-c3ccc(F)cn3)c2CN1C(=O)Nc1ccc(F)c(Cl)c1` (centres unmarked) [Example 94, N-(3-chloro-4-fluoro-phenyl)-3-(5-fluoro-2-pyridyl)-6-methyl-6,7-dihydro-4H-pyrazolo[1,5-a]pyrazine-5-carboxamide], the EC50 was 33 nM.
In the case of `C[C@H]1Cn2ncc(N3C(=O)Cc4ccccc43)c2CN1C(=O)Nc1cc(F)c(F)c(F)c1` [Example 338, (6S)-6-methyl-3-(2-oxoindolin-1-yl)-N-(3,4,5-trifluorophenyl)-6,7-dihydro-4H-pyrazolo[1,5-a]pyrazine-5-carboxamide], the EC50 is reported as 14 nM.
Work on `Cc1cc(NC(=O)N2Cc3c(-c4ccc(F)cn4)cnn3CC2C)cc(F)c1F` (centres unmarked) [Example 156, N-(3,4-difluoro-5-methyl-phenyl)-3-(5-fluoro-2-pyridyl)-6-methyl-6,7-dihydro-4H-pyrazolo[1,5-a]pyrazine-5-carboxamide] yielded an EC50 of 25 nM.
Compound `C[C@H]1Cn2ncc(N3C[C@@H](O)CC3=O)c2CN1C(=O)Nc1cc(F)c(F)c(F)c1` [Example 377, (6S)-3-[(4S)-4-hydroxy-2-oxo-pyrrolidin-1-yl]-6-methyl-N-(3,4,5-trifluorophenyl)-6,7-dihydro-4H-pyrazolo[1,5-a]pyrazine-5-carboxamide] has an EC50 of 81 nM.
`C[C@H]1Cn2ncc(N3CC(c4ccccn4)CC3=O)c2CN1C(=O)Nc1cc(F)c(F)c(F)c1` (stereo partly drawn) [Example 353, (6S)-6-methyl-3-[2-oxo-4-(2-pyridyl)pyrrolidin-1-yl]-N-(3,4,5-trifluorophenyl)-6,7-dihydro-4H-pyrazolo[1,5-a]pyrazine-5-carboxamide] showed an EC50 of 5 nM.
In the case of `O=C(Nc1cccc(Cl)c1)N1CCn2ncc(-c3ccccc3F)c2C1` [Example 30, N-(3-chlorophenyl)-3-(2-fluorophenyl)-6,7-dihydro-4H-pyrazolo[1,5-a]pyrazine-5-carboxamide], the EC50 is reported as 72 nM.
`CC1CN(C(=O)Nc2ccc(F)c(Cl)c2)Cc2c(-c3ccc(F)cc3)cnn21` (centres unmarked) [Example 230, N-(3-chloro-4-fluoro-phenyl)-3-(4-fluorophenyl)-7-methyl-6,7-dihydro-4H-pyrazolo[1,5-a]pyrazine-5-carboxamide] showed an EC50 of 52 nM.
Compound `C[C@H]1Cn2ncc(N3CC4CC4C3=O)c2CN1C(=O)Nc1cc(F)c(F)c(F)c1` (stereo partly drawn) [Example 253, (6S)-6-methyl-3-(2-oxo-3-azabicyclo[3.1.0]hexan-3-yl)-N-(3,4,5-trifluorophenyl)-6,7-dihydro-4H-pyrazolo[1,5-a]pyrazine-5-carboxamide] has an EC50 of 44 nM.
Work on `C[C@@H]1CN(C(=O)C2CC(=O)N(c3cnn4c3CN(C(=O)Nc3cc(F)c(F)c(F)c3)[C@@H](C)C4)C2)C[C@H](C)O1` (stereo partly drawn) [Example 397, (6S)-3-[4-[cis-2,6-dimethylmorpholine-4-carbonyl]-2-oxo-pyrrolidin-1-yl]-6-methyl-N-(3,4,5-trifluorophenyl)-6,7-dihydro-4H-pyrazolo[1,5-a]pyrazine-5-carboxamide] yielded an EC50 of 60 nM.
`C[C@H]1Cn2ncc(N3CCCC3=O)c2CN1C(=O)Nc1ccc(F)c(Cl)c1` [Example 355, (6S)—N-(3-chloro-4-fluoro-phenyl)-6-methyl-3-(2-oxopyrrolidin-1-yl)-6,7-dihydro-4H-pyrazolo[1,5-a]pyrazine-5-carboxamide] gave an EC50 of 36 nM.
In the case of `CC1Cn2ncc(N3CCCC3=O)c2CN1C(=O)Nc1ccc(F)c(Cl)c1` (centres unmarked) [Example 202, N-(3-chloro-4-fluoro-phenyl)-6-methyl-3-(2-oxopyrrolidin-1-yl)-6,7-dihydro-4H-pyrazolo[1,5-a]pyrazine-5-carboxamide], the EC50 is reported as 51 nM.

Same assay, conditions: five days after compound treatment, extracellular HBV DNA in culture supernatant by qPCR, concentration at which HBV replication is inhibited by 50%
In the case of `CC1C(C#N)CC(=O)N1c1cnn2c1CN(C(=O)Nc1cc(F)c(F)c(F)c1)[C@@H](C)C2` (single isomer, unassigned) [Example 420-3], the EC50 is reported as 3 nM.
Compound `C[C@H]1Cn2ncc(N3CC(c4ccccc4)C(O)C3=O)c2CN1C(=O)Nc1cc(F)c(F)c(F)c1` (single isomer, unassigned) [Example 438-3] has an EC50 of 44 nM.
For `C[C@H]1Cn2ncc(N3CC(c4ccccc4)C(O)C3=O)c2CN1C(=O)Nc1cc(F)c(F)c(F)c1` (single isomer, unassigned) [Example 438-4], the EC50 was 10 nM.
`CC1C(C#N)CC(=O)N1c1cnn2c1CN(C(=O)Nc1cc(F)c(F)c(F)c1)[C@@H](C)C2` (single isomer, unassigned) [Example 420-2] was tested, and the EC50 was 30 nM.
